Columns and labels:
[1] = target: T1, human SSAO T2 (Met211-Asn763), C-terminal 6xHIS tag (Homo sapiens, UniProt Q16853); assay: Benzylamine stability in lysate of cells expressing T2 SSAO with C-terminal 6xHIS tag, LC/MS/MS; assay type: in vitro ADME
T1 construct: T2 (Met211-Asn763) Representing the Putative Catalytic Domain; expressed in transfected cells; cell lysate
T1 sequence (Q16853 211-763): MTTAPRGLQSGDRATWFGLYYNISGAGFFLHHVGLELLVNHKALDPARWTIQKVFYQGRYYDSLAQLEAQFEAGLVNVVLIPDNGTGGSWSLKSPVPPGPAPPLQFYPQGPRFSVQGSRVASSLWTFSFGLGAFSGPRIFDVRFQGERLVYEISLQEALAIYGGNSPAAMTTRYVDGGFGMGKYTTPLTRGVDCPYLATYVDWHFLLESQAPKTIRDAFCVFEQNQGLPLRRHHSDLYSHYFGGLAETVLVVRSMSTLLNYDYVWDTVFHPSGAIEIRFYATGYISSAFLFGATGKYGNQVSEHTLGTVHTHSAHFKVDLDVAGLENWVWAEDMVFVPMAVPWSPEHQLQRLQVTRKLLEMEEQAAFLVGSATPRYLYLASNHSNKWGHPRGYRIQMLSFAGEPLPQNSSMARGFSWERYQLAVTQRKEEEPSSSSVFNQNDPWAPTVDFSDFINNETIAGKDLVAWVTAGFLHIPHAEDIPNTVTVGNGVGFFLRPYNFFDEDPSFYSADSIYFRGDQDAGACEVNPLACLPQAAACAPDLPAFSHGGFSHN
Description: (§1) 4) T2 (Met211-Asn763) Representing the Putative Catalytic Domain.
(§2) The expression constructs were prepared by cloning these PCR products into the pCDNA5-FRT-To-DEST vector (Invitrogen, Gateway System™). The forward and reverse DNA sequence of each construct was confirmed including expressed sequences and at least 100 base pairs either side of this. Stable cell lines for Flp-In CHO, Flp-In CHO T-Rex, and Flp-In HEK 293 (Invitrogen, Flp-In system™) were generated using these 6 constructs according to manufacturer's instructions. Cells were co-transfected with the regulatory vector, pOG44, and each of the pCDNA5-FRT-To-DEST constructs using Lipfectamine (Invitrogen) according to manufacturer's instructions. Thus, 18 cell lines were generated: CHO Flp-In full-length SSAO; CHO Flp-In full-length SSAO with C-terminal 6×HIS tag; CHO Flp-In T1 SSAO; CHO Flp-In T1 SSAO with C-terminal 6×HIS tag; CHO Flp-In T2 SSAO; CHO Flp-In T2 SSAO with C-terminal 6×HIS tag; CHO T-Rex Flp-In full-length SSAO; CHO T-Rex Flp-In full-length SSAO with C-terminal 6×HIS tag; CHO T-Rex Flp-In T1 SSAO; CHO T-Rex Flp-In T1 SSAO with C-terminal 6×HIS tag; CHO T-Rex Flp-In T2 SSAO; CHO Flp-In T2 SSAO with C-terminal 6×HIS tag; HEK 293 Flp-In full-length SSAO; HEK 293 Flp-In full-length SSAO with C-terminal 6×HIS tag; HEK 293 Flp-In T1 SSAO; HEK 293 Flp-In T1 SSAO with C-terminal 6×HIS tag; HEK 293 Flp-In T2 SSAO; HEK 293 Flp-In T2 SSAO with C-terminal 6×HIS tag.
(§3) Adherent CHO cells were cultured at 37° C., 5% CO2 in media containing Ham's F12, 10% fetal bovine serum, 2 mM L-glutamine, 1% Penicillin/Streptomycin, 300 μM hygromycin B. Adherent HEK 293 cells were cultured at 37° C., 5% CO2 in D-MEM (high glucose), 10% fetal bovine serum, 2 mM L-glutamine, and 200 μM hygromycin B. Stable transformants were identified by loss of zeocin resistance. Once the cells were 80% confluent, SSAO expression was induced by the addition of Tetracycline to 1 μg/mL. Following 18 hours, the cells were harvested using a trypsin treatment of 3 minutes, at room temperature. Cells were washed 3 times in phosphate buffered saline before flash freezing in liquid nitrogen.
(§4) For the preparation of cell lysate for activity testing, frozen cell pellets were resuspended in lysate buffer containing 10 mM Tris-HCl (pH 7.2), 150 mM NaCl, 1.5 mM MgCl2, 1% v/v NP-40 and incubated for 15 minutes on ice. Lysate was cleared by centrifugation 800×g for 10 minutes, 4° C. and stored in aliquots at −80° C. until use. Proteins were determined using Pierce Coomassie Protein Reagent, according to manufacturer's instructions.
(§5) For each assay run, 1 mL of cell lysate (1.5 mg/mL protein) was mixed with benzylamine to 2000 ng/mL final concentration. At each corresponding time point, […] the incubation mixture was transferred to a microcentrifuge tube (1.7 mL) and mixed with 50 μL of acetonitrile. The tubes were vortex mixed briefly to ensure complete mixing and then centrifuged at 10,000×g for 5 minutes. The supernatant was removed and 50 μL was transferred to an autosampler vial and mixed with 50 μL of water before LC/MS/MS analysis. Benzylamine remaining in the lysate was analyzed with LC/MS/MS method.
(§6) LC/MS/MS analysis was performed with a PE Sciex API 3000 mass spectrometer under the following conditions listed below and in Tables 1 and 2: […]

[2] = target: T2, human SSAO T2 (Met211-Asn763), untagged (Homo sapiens, UniProt Q16853); assay: Benzylamine stability in lysate of cells expressing T2 SSAO (untagged), LC/MS/MS; assay type: in vitro ADME; conditions: tag None
T2 construct: T2 (Met211-Asn763) Representing the Putative Catalytic Domain; expressed in transfected cells; cell lysate
T2 sequence (Q16853 211-763): T1 sequence (Q16853 211-763)
Description: as §1, §2, §3, §4, §5, §6

[3] = CHO Flp-In T-Rex lysate, 10 min

Benzylamine Remaining (%) ([1]; CHO Flp-In T-Rex lysate, 0 min): 100%
Benzylamine Remaining (%) [1, 3]: 100%
Benzylamine Remaining (%) ([1]; CHO Flp-In T-Rex lysate, 2 h): 97%
Benzylamine Remaining (%) ([1]; CHO Flp-In lysate, 0 min): 100%
Benzylamine Remaining (%) ([1]; CHO Flp-In lysate, 10 min): 108%
Benzylamine Remaining (%) ([1]; CHO Flp-In lysate, 2 h): 102%
Benzylamine Remaining (%) ([1]; HEK293 lysate, 0 min): 100%
Benzylamine Remaining (%) ([1]; HEK293 lysate, 10 min): 100%
Benzylamine Remaining (%) ([1]; HEK293 lysate, 2 h): 117%
Benzylamine Remaining (%) ([2]; CHO Flp-In T-Rex lysate, 0 min): 100%
Benzylamine Remaining (%) [2, 3]: 97%
Benzylamine Remaining (%) ([2]; CHO Flp-In T-Rex lysate, 2 h): 83%
Benzylamine Remaining (%) ([2]; CHO Flp-In lysate, 0 min): 100%
Benzylamine Remaining (%) ([2]; CHO Flp-In lysate, 10 min): 105%
Benzylamine Remaining (%) ([2]; CHO Flp-In lysate, 2 h): 98%
Benzylamine Remaining (%) ([2]; HEK293 lysate, 0 min): 100%
Benzylamine Remaining (%) ([2]; HEK293 lysate, 10 min): 113%
Benzylamine Remaining (%) ([2]; HEK293 lysate, 2 h): 101%
Compound: NCc1ccccc1 [Benzylamine]
